Laboratory results taken from article PMC9499525, “Tissue-restricted inhibition of mTOR using chemical genetics” (Proceedings of the National Academy of Sciences of the …, 2022).
Like-named read-outs stand apart in the source and are kept apart here.

How the values were obtained:
[1] = system: mTOR signaling in Flp-In T-REx 293 cells; test: mTOR signaling by Western blot in parental (wild-type) Flp-In 293 cells; format: cell-based, human; details: for IC50: Homo sapiens, 24 h treatment, wild-type 293 cells
Procedure: All cell lines were maintained in DMEM (Gibco) supplemented with 10% heat-inactivated FBS (Axenia Biologix) at 37 °C in 5% CO2. Flp-In T-REx 293 cells were obtained from Thermo Fisher supplemented with 15 µg/mL blasticin and 100 µg/mL Zeocin. Flp-In T-REx 293 FKBP12 V55G cells were supplemented with 15 µg/mL blasticin and 150 µg/mL hygromycin B. FKBP12 V55G expression was induced with 1 µg/mL doxycycline 24 h prior to drug treatments. MCF7 cells were obtained from ATCC (American Type Culture Collection), and MCF7 mTOR F2108L cells were described previously ([30]). When indicated, cells were treated with drugs at 60–80% confluency at a final DMSO concentration of 0.1%. At the end of the treatment period, cells were placed on ice and washed once with PBS. Cells were scraped with a spatula and lysed in radioimmunoprecipitation assay (RIPA) buffer supplemented with protease and phosphatase inhibitors (cOmplete and phosSTOP, Roche) on ice for 5 min. Lysates were clarified by high-speed centrifugation. Lysate concentration was determined by Bradford assay (Thermo Fisher) and adjusted to 2 mg/mL with additional RIPA buffer. Samples were mixed with 5x SDS loading dye and heated at 95 °C for 5 min.
SDS-PAGE was run with Novex 4–12% Bis-Tris gel (Invitrogen) in MOPS running buffer at 200V for 40 min. Samples were loaded at 20 µg lysate per lane. […] Following three 5 min. washes with TBST, membranes were imaged on a Li-COR Odyssey fluorescence imager. […] Blot quantification was performed in Fiji, and data were graphed and fit in Prism 9 (GraphPad). […] For detection of phosphorylated and total protein, primary antibodies for phospho-Akt/Akt, phospho-S6K/S6K, or phospho-S6/S6 were combined and detected using a mixture of species-specific secondary antibodies with orthogonal fluorescence to allow simultaneous detection of phosphorylated and total protein from a single membrane, or membrane was stripped (Cell Signaling Technology) after detection of phosphorylated protein and then reblocked and reprobed with primary antibody for total protein.

[2] = system: Drosophila larvae (w1118 control and FKBP12 V55G transgenic); test: Drosophila larval development (pupae 9 d after egg laying); format: in vivo
Procedure: All Drosophila stocks and crosses were maintained on standard cornmeal-molasses food at 25 °C using a 12-h light/dark cycle. To generate UAS-FKBP12 V55G-HA transgenic lines, human FKBP12 V55G-HA ORF was cloned into a pUAST-attB vector between EcoR-I and Xho-I restriction sites. This construct was then integrated into an attB site using phiC31 integrase with the assistance of Rainbow Transgenic Flies, Inc. The driver stocks da-GAL4 (ubiquitous), elav-GAL4 and nSyb-GAL4 (neuronal-specific), Mef2-GAL4 and mhc-GAL4 (musculature), and 2–286-GAL4 and phm-GAL4 (ring-gland-specific) were obtained from Bloomington Drosophila Stock Center. The crossing schemes used in this study are depicted in SI Appendix, Fig. S11. For rapamycin or Rapa*3Z related experiments, fly food was prepared freshly 24 h before each experiment.
Fly food containing ethanol vehicle was used as control. […] Three biological replicates were used for each experiment. Data were analyzed using Prism 9.0 (GraphPad).

Structure (SMILES): CCO/N=C1/C[C@@H]([C@H](C)C[C@@H]2CC[C@@H](O)[C@H](OC)C2)OC(=O)[C@@H]2CCCCN2C(=O)C(=O)[C@]2(O)O[C@@H](CC[C@H]2C)C[C@H](OC)/C(C)=C/C=C/C=C/[C@@H](C)C[C@@H](C)C(=O)[C@H](OC)[C@H](O)/C(C)=C/[C@H]1C [Rapa*-3Z]
- mTOR signaling in wild-type 293 cells ([1]; 10 nM, time course): unaffected
- IC50 ([1]; read-out: IC50 phospho-S6): 121 nM
- IC50 ([1]; read-out: IC50 phospho-S6K): 76 nM
- Larval-to-pupal transition, FKBP12 V55G in ring gland (independent driver) ([2]; 2-286-GAL4, 100 µM, 9 d): nearly eliminated the larval-to-pupal transition
- Dose necessary for complete inhibition of larval development ([2]; FKBP12 V55G animals (ubiquitous da-GAL4), in food, 9 d after egg laying): 100 µM
- Larval-to-pupal transition, FKBP12 V55G in musculature and nervous system (independent drivers) ([2]; Mef2-GAL4 and elav-GAL4, 100 µM, 9 d): significant, but lesser, inhibition
- Effect on larval development, ubiquitous FKBP12 V55G expression ([2]; da-GAL4 > FKBP12 V55G, 100 µM): potently inhibited larval development
- Pupal formation, FKBP12 V55G in musculature and nervous system ([2]; mhc-GAL4 and nSyb-GAL4, 100 µM, 9 d after egg laying): similar, but less severe, inhibition of pupal formation
- Pupal formation, FKBP12 V55G in ring gland ([2]; phm-GAL4, 100 µM, 9 d after egg laying): failed to pupate
- Effect on larval development in control flies at 300 and 400 µM ([2]; w1118, 300 and 400 µM, 14 days after egg laying): no influence on larval development
- Effect on larval development in wild-type animals ([2]; wild-type (w1118) larvae, compound in food): no effect
